Assay results reported in a compilation of properties of binary mixtures (doi:10.1007/s10973-014-3978-x).

Experiment: xn = mol fraction of the nth substance listed
Settings: 101 kPa

`O=C1CCCC1` + CC[n+]1ccn(C)c1.F[B-](F)(F)F gave a speed of sound (293.15 K, x1 = 0.0877) of 1643.2 m/s, a speed of sound (293.15 K, x1 = 0.1164) of 1644.4 m/s and a speed of sound (293.15 K, x1 = 0.1767) of 1642 m/s. The speed of sound (293.15 K, x1 = 0.2302) was 1633.9 m/s, the speed of sound (293.15 K, x1 = 0.2879) was 1622.5 m/s and the speed of sound (293.15 K, x1 = 0.3887) was 1593.6 m/s. The speed of sound (293.15 K, x1 = 0.478) was 1562.8 m/s, the speed of sound (293.15 K, x1 = 0.5878) was 1522.6 m/s and the speed of sound (293.15 K, x1 = 0.6115) was 1513.9 m/s. For the same compound, the speed of sound (293.15 K, x1 = 0.6411) was 1503.2 m/s, the speed of sound (293.15 K, x1 = 0.7649) was 1462.6 m/s and the speed of sound (293.15 K, x1 = 0.7867) was 1456.3 m/s. The speed of sound (293.15 K, x1 = 0.9061) was 1427.6 m/s, the speed of sound (298.15 K, x1 = 0.0877) was 1628.4 m/s and the speed of sound (298.15 K, x1 = 0.1164) was 1629.3 m/s. For the same compound, the speed of sound (298.15 K, x1 = 0.1767) was 1625.9 m/s, the speed of sound (298.15 K, x1 = 0.2302) was 1619.2 m/s and the speed of sound (298.15 K, x1 = 0.2879) was 1606.5 m/s. The speed of sound (298.15 K, x1 = 0.3434) was 1592.4 m/s, the speed of sound (298.15 K, x1 = 0.3887) was 1578.2 m/s and the speed of sound (298.15 K, x1 = 0.5114) was 1533.8 m/s. It also gave a speed of sound (298.15 K, x1 = 0.5878) of 1504.6 m/s, a speed of sound (298.15 K, x1 = 0.6115) of 1495.8 m/s and a speed of sound (298.15 K, x1 = 0.6411) of 1485 m/s. For the same compound, the speed of sound (298.15 K, x1 = 0.6834) was 1469.2 m/s, the speed of sound (298.15 K, x1 = 0.7649) was 1441.6 m/s and the speed of sound (298.15 K, x1 = 0.7867) was 1435.4 m/s. The speed of sound (298.15 K, x1 = 0.8157) was 1427 m/s, the speed of sound (298.15 K, x1 = 0.8755) was 1412.3 m/s and the speed of sound (298.15 K, x1 = 0.9061) was 1406 m/s. It also gave a speed of sound (303.15 K, x1 = 0.0877) of 1615.4 m/s, a speed of sound (303.15 K, x1 = 0.1164) of 1615.2 m/s and a speed of sound (303.15 K, x1 = 0.1767) of 1611.6 m/s. For the same compound, the speed of sound (303.15 K, x1 = 0.3434) was 1577.1 m/s, the speed of sound (303.15 K, x1 = 0.478) was 1530.1 m/s and the speed of sound (303.15 K, x1 = 0.5114) was 1517.1 m/s. It also gave a speed of sound (303.15 K, x1 = 0.5878) of 1486.7 m/s, a speed of sound (303.15 K, x1 = 0.6115) of 1477.3 m/s and a speed of sound (303.15 K, x1 = 0.6411) of 1465.7 m/s. It also gave a speed of sound (303.15 K, x1 = 0.6834) of 1449.6 m/s, a speed of sound (303.15 K, x1 = 0.7649) of 1421.2 m/s and a speed of sound (303.15 K, x1 = 0.7867) of 1414.3 m/s. For the same compound, the speed of sound (303.15 K, x1 = 0.8157) was 1405.9 m/s, the speed of sound (303.15 K, x1 = 0.9061) was 1384.4 m/s and the speed of sound (308.15 K, x1 = 0.1164) was 1599.6 m/s. It also gave a speed of sound (308.15 K, x1 = 0.1767) of 1595.8 m/s, a speed of sound (308.15 K, x1 = 0.2302) of 1588.2 m/s and a speed of sound (308.15 K, x1 = 0.2879) of 1576.9 m/s. The speed of sound (308.15 K, x1 = 0.3434) was 1562.1 m/s, the speed of sound (308.15 K, x1 = 0.3887) was 1548 m/s and the speed of sound (308.15 K, x1 = 0.5114) was 1502.2 m/s. For the same compound, the speed of sound (308.15 K, x1 = 0.5878) was 1470.6 m/s, the speed of sound (308.15 K, x1 = 0.6115) was 1460.7 m/s and the speed of sound (308.15 K, x1 = 0.6411) was 1448.7 m/s. The speed of sound (308.15 K, x1 = 0.6834) was 1431.7 m/s, the speed of sound (308.15 K, x1 = 0.7649) was 1402.3 m/s and the speed of sound (308.15 K, x1 = 0.7867) was 1394.6 m/s. The speed of sound (308.15 K, x1 = 0.8157) was 1385.8 m/s, the speed of sound (308.15 K, x1 = 0.8755) was 1370.4 m/s and the speed of sound (308.15 K, x1 = 0.9061) was 1363.9 m/s.

For `CC[n+]1ccn(C)c1.F[B-](F)(F)F` + O=C1CCCCC1, the speed of sound (293.15 K, x2 = 0.0789) was 1623.5 m/s, the speed of sound (293.15 K, x2 = 0.1407) was 1616.1 m/s and the speed of sound (293.15 K, x2 = 0.1861) was 1609.9 m/s. The speed of sound (293.15 K, x2 = 0.2271) was 1603 m/s, the speed of sound (293.15 K, x2 = 0.3069) was 1588.5 m/s and the speed of sound (293.15 K, x2 = 0.3898) was 1571.3 m/s. For the same compound, the speed of sound (293.15 K, x2 = 0.4269) was 1562.9 m/s, the speed of sound (293.15 K, x2 = 0.489) was 1548.9 m/s and the speed of sound (293.15 K, x2 = 0.5007) was 1545.9 m/s. For the same compound, the speed of sound (293.15 K, x2 = 0.5432) was 1535.6 m/s, the speed of sound (293.15 K, x2 = 0.6302) was 1514.1 m/s and the speed of sound (293.15 K, x2 = 0.7559) was 1483.3 m/s. The speed of sound (293.15 K, x2 = 0.779) was 1477.4 m/s, the speed of sound (293.15 K, x2 = 0.8235) was 1467.2 m/s and the speed of sound (293.15 K, x2 = 0.8675) was 1457 m/s. The speed of sound (293.15 K, x2 = 0.9001) was 1450.6 m/s, the speed of sound (298.15 K, x2 = 0.0789) was 1613.7 m/s and the speed of sound (298.15 K, x2 = 0.1407) was 1607.6 m/s. It also gave a speed of sound (298.15 K, x2 = 0.2271) of 1593.7 m/s, a speed of sound (298.15 K, x2 = 0.3898) of 1560.2 m/s and a speed of sound (298.15 K, x2 = 0.5007) of 1532.4 m/s. It also gave a speed of sound (298.15 K, x2 = 0.6302) of 1499.3 m/s, a speed of sound (298.15 K, x2 = 0.6848) of 1484.9 m/s and a speed of sound (298.15 K, x2 = 0.7559) of 1467.5 m/s. It also gave a speed of sound (298.15 K, x2 = 0.779) of 1461.4 m/s, a speed of sound (298.15 K, x2 = 0.8235) of 1450.9 m/s and a speed of sound (298.15 K, x2 = 0.8675) of 1440.8 m/s. The speed of sound (298.15 K, x2 = 0.9001) was 1433.9 m/s, the speed of sound (303.15 K, x2 = 0.0789) was 1602.6 m/s and the speed of sound (303.15 K, x2 = 0.1407) was 1595.3 m/s. It also gave a speed of sound (303.15 K, x2 = 0.1861) of 1587.8 m/s, a speed of sound (303.15 K, x2 = 0.2271) of 1580.5 m/s and a speed of sound (303.15 K, x2 = 0.2765) of 1570.4 m/s. It also gave a speed of sound (303.15 K, x2 = 0.3069) of 1563.6 m/s, a speed of sound (303.15 K, x2 = 0.3898) of 1543.8 m/s and a speed of sound (303.15 K, x2 = 0.4269) of 1534.4 m/s. For the same compound, the speed of sound (303.15 K, x2 = 0.489) was 1518.4 m/s, the speed of sound (303.15 K, x2 = 0.5007) was 1515 m/s and the speed of sound (303.15 K, x2 = 0.5432) was 1503.3 m/s. The speed of sound (303.15 K, x2 = 0.6302) was 1480.2 m/s, the speed of sound (303.15 K, x2 = 0.6848) was 1465.9 m/s and the speed of sound (303.15 K, x2 = 0.779) was 1441.7 m/s. For the same compound, the speed of sound (303.15 K, x2 = 0.8235) was 1431.5 m/s, the speed of sound (303.15 K, x2 = 0.9001) was 1414.6 m/s and the speed of sound (308.15 K, x2 = 0.1407) was 1581 m/s. The speed of sound (308.15 K, x2 = 0.1861) was 1573.9 m/s, the speed of sound (308.15 K, x2 = 0.2271) was 1565.6 m/s and the speed of sound (308.15 K, x2 = 0.3898) was 1527.9 m/s. The speed of sound (308.15 K, x2 = 0.4269) was 1518.2 m/s, the speed of sound (308.15 K, x2 = 0.489) was 1501.3 m/s and the speed of sound (308.15 K, x2 = 0.5007) was 1498.2 m/s. For the same compound, the speed of sound (308.15 K, x2 = 0.5432) was 1486.5 m/s, the speed of sound (308.15 K, x2 = 0.6302) was 1462.4 m/s and the speed of sound (308.15 K, x2 = 0.6848) was 1447.8 m/s. It also gave a speed of sound (308.15 K, x2 = 0.7559) of 1428.7 m/s, a speed of sound (308.15 K, x2 = 0.779) of 1423.1 m/s and a speed of sound (308.15 K, x2 = 0.8235) of 1412.3 m/s. For the same compound, the speed of sound (308.15 K, x2 = 0.9001) was 1395 m/s.
